Where a name gives a salt, the structure may show the parent alone.
Assays:
[1] = system: CCI rats (chronic constriction of the sciatic nerve of Wistar rats); conditions: for efficacy for short-term/acute and long-term/chronic neuropathic pain: intravenous administration
K^+ currents from sdTGNs = assay: Whole-cell voltage-clamp of K+ currents in small diameter trigeminal ganglion neurons; conditions: dose dependent manner
[2] = system: K^+ currents recorded from a small diameter neuron isolated from a dorsal-root ganglion of the 'affected' side of a CCI rat; assay: Voltage dependence of steady-state inactivation of K+ currents, sdDRG neuron of CCI rat; conditions: CCI rat 28 days after surgery
hKv1.3 = molecular target: T1, hKv1.3 (Homo sapiens, UniProt P22001); assay: Whole-cell voltage-clamp on cell lines expressing Kv1.x channels (nitenin); assay type: cell-based
T1 construct: expressed in transfected cells
Description: In the context of this disclosure, “affinity” relates to the effect on the activity of such channel. Affinity can be measured by voltage clamp recordings of currents evoked by cells that express solely that given channel.
Voltage-clamp recordings under the whole-cell configurations were/are used to measure the ‘amount of inhibition’ of the whole-cell current evoked by a given channel expressed in non-excitable cell lines. Dose responses are obtained by measuring such inhibitions per each concentration. Voltage-activated K+ currents were evoked from mammalian cell lines expressing Kv1.1, Kv1.2, Kv1.3, Kv1.4, Kv1.5, kv1.6 or kv1.7 using standard voltage protocols (Schmitz et al., 2005; Vennekamp et al.).

T1 sequence (P22001 whole entry): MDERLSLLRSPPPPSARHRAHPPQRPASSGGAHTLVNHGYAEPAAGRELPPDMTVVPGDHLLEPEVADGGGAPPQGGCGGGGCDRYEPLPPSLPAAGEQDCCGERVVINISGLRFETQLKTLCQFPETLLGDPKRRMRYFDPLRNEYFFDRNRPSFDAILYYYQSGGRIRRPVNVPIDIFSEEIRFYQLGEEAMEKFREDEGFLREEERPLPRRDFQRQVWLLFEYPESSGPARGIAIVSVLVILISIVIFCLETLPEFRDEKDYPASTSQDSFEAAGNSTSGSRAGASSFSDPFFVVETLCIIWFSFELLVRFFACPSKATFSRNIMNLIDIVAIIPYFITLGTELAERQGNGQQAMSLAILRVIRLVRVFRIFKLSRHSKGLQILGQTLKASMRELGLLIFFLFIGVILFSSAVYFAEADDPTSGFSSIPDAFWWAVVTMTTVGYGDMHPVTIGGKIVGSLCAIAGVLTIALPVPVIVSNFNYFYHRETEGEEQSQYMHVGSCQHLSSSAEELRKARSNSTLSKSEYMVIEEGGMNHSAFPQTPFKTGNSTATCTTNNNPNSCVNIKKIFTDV

| Structure (SMILES) | efficacy for short-term/acute and long-term/chronic neuropathic pain [1] | effect on K+ currents from sdTGNs (K^+ currents from sdTGNs) | Vh1 (voltage of half maximum current, component 1) of steady-state inactivation ([2]; AM92016 hidrochloride 40 nM, control Vh1=−71.3 mV) [mV] | Vh2 (voltage of half maximum current, component 2) of steady-state inactivation ([2]; AM92016 hidrochloride 40 nM, control Vh2=−28.2 mV) [mV] | Vh1 (voltage of half maximum current, component 1) of steady-state inactivation ([2]; PAP-1 2 nM, control Vh1=−90.1 mV) [mV] | Vh2 (voltage of half maximum current, component 2) of steady-state inactivation ([2]; PAP-1 2 nM, control Vh2=−27.8 mV) [mV] | mechanical sensitivity of the ipsilateral leg at maximum effect ([1]; nitenin IV, estimated plasma concentration 1 μg/ml, 26 days after surgery, Von Frey) | IC50 (hKv1.3) [nM] | Vh1 (voltage of half maximum current, component 1) of steady-state inactivation ([2]; nitenin 0.29 μM, control Vh1=−73.3 mV) [mV] | Vh2 (voltage of half maximum current, component 2) of steady-state inactivation ([2]; nitenin 0.29 μM, control Vh2=−26.3 mV) [mV] |
| --- | --- | --- | --- | --- | --- | --- | --- | --- | --- | --- |
| CN(CCc1ccc(Cl)c(Cl)c1)CC(O)COc1ccc(NS(C)(=O)=O)cc1 (stereo not shown) [AM92016 hydrochloride] | effective | inhibit the K^+ currents | −93.63 | −33.6 | – | – | – | – | – | – |
| O=c1ccc2c(OCCCCOc3ccccc3)c3ccoc3cc2o1 [PAP-1, 5-(4-Phenoxybutoxy)psoralen] | effective | inhibit the K^+ currents | – | – | −101.7 | −32.6 | – | – | – | – |
| O=c1ccc2c(OCCCCc3ccccc3)c3ccoc3cc2o1 [PSORA-4, 4-(4-Phenylbutoxy)-7H-furo[3,2-g][1]benzopyran-7-one] | effective | inhibit the K^+ currents | – | – | – | – | – | – | – | – |
| C/C(=C\C1C/C(=C/CCc2ccoc2)C(=O)O1)CCCc1ccoc1 (stereo not shown) [nitenin] | effective | inhibit the K^+ currents | – | – | – | – | in some instances similar to those obtained during baseline | ~190 | −95.3 | −47.0 |
